Columns and labels:
Assay in all cases: relative viability (nuclei count vs DMSO), 5 days (fraction); higher = more cells survive
Axitinib + Phenformin = compound: CNC(=O)c1ccccc1Sc1ccc2c(/C=C/c3ccccn3)n[nH]c2c1 [Axitinib] + N=C(N)NC(=N)NCCc1ccccc1 [Phenformin] (partner 250 µM)
Summary of the method: (§1)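 The day after seeding in 1536-well plates, lung cancer cell lines were treated by pin tool with a single drug, or with a fixed anchor-drug dose together with five library-drug doses (not always all listed) in √10 steps. After 5 days, a combined fix-and-stain solution (final 0.05% Triton X-100, 1% formaldehyde, 1 ug/ml Hoechst) was added. Nuclei counted on 4× images gave relative viability as treated counts over vehicle counts, reported as the median of duplicate plates.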

[1] = compound: CC1=CC=C(C=C1)C(=O)CN2C3=C(CCCC3)SC2=N [Pifithrin_alpha] + O=C(c1cc(Cc2n[nH]c(=O)c3ccccc23)ccc1F)N1CCN(C(=O)C2CC2)CC1 [Olaparib] (partner 8 µM)
Summary of the method: as §1

Axitinib + Linsitinib = compound: CNC(=O)c1ccccc1Sc1ccc2c(/C=C/c3ccccn3)n[nH]c2c1 [Axitinib] + C[C@]1(O)C[C@@H](c2nc(-c3ccc4ccc(-c5ccccc5)nc4c3)c3c(N)nccn32)C1 [Linsitinib] (partner 1 µM)
Summary of the method: as §1

[2] = compound: CC1=CC=C(C=C1)C(=O)CN2C3=C(CCCC3)SC2=N [Pifithrin_alpha] + Cc1cc(Nc2cc(N3CCN(C)CC3)nc(Sc3ccc(NC(=O)C4CC4)cc3)n2)n[nH]1 [Tozasertib] (partner 0.1 µM)
Summary of the method: as §1

Cell Line	relative viability (Axitinib + Phenformin; first compound 0.005 µM)	relative viability (Axitinib + Phenformin; first compound 0.01581 µM)	relative viability (Axitinib + Phenformin; first compound 0.05 µM)	relative viability (Axitinib + Phenformin; first compound 0.1581 µM)	relative viability (Axitinib + Phenformin; first compound 0.5 µM)	relative viability ([1]; first compound 1 µM)	relative viability ([1]; first compound 3.162 µM)	relative viability ([1]; first compound 10 µM)	relative viability ([1]; first compound 31.62 µM)	relative viability ([1]; first compound 100 µM)	relative viability (Axitinib + Linsitinib; first compound 0.005 µM)	relative viability (Axitinib + Linsitinib; first compound 0.01581 µM)	relative viability (Axitinib + Linsitinib; first compound 0.05 µM)	relative viability (Axitinib + Linsitinib; first compound 0.1581 µM)	relative viability (Axitinib + Linsitinib; first compound 0.5 µM)	relative viability ([2]; first compound 1 µM)	relative viability ([2]; first compound 3.162 µM)	relative viability ([2]; first compound 10 µM)	relative viability ([2]; first compound 31.62 µM)	relative viability ([2]; first compound 100 µM)
HCC-15	0.469	0.458	0.51	0.472	0.464	0.733	0.867	0.697	0.368	0.581	0.959	0.879	0.88	0.838	0.895	0.463	0.544	0.245	0.212	0.165
H3255	0.368	0.236	0.335	0.358	0.377	0.603	0.562	0.53	0.44	0.485	1.08	0.797	0.83	0.917	1.03	0.642	0.896	0.574	0.572	0.708
SK-MES-1	0.65	0.653	0.654	0.631	0.738	0.479	0.493	0.292	0.241	0.373	1.12	1.07	1.08	1.14	1.22	0.805	0.749	0.613	0.392	0.404
COR-L 105	0.605	0.4	0.527	0.388	0.547	0.489	0.426	0.477	0.425	0.447	1.04	0.792	0.97	1.21	1.13	0.346	0.358	0.368	0.31	0.316
NCI-H838	0.697	0.509	0.763	0.564	0.654	0.723	0.505	0.469	0.363	0.534	1.04	1.01	1.1	1	1.19	0.265	0.24	0.237	0.222	0.208
EKVX	0.243	0.222	0.214	0.233	0.216	0.825	0.685	0.531	0.266	0.336	1.04	0.849	0.946	0.997	1.08	0.532	–	0.349	0.245	0.349
RERF-LC-KJ	0.462	0.445	0.396	0.457	0.458	0.779	0.4	0.215	0.178	0.175	0.962	0.81	0.901	0.834	0.947	0.498	0.412	0.308	0.253	0.289
LK-2	0.674	0.202	0.481	0.353	0.293	0.554	0.833	0.933	–	0.776	0.543	0.471	–	0.439	0.415	0.188	0.134	0.146	–	0.152
NCI-H1666	0.588	0.559	0.552	0.586	0.502	0.72	0.673	0.657	0.641	0.648	0.926	0.917	0.786	0.8	0.912	0.606	0.596	0.474	0.507	0.515
LCLC-103H	0.32	0.341	0.345	0.356	0.312	0.772	0.817	0.644	0.52	0.686	1.27	1.08	1.05	1.05	1.03	0.462	0.452	0.485	0.396	0.46
NCI-H1755	0.62	0.613	0.604	0.634	0.658	0.789	0.747	0.734	0.544	0.73	1.04	0.963	0.99	1.02	1.03	0.67	0.449	0.492	0.424	0.54
NCI-H520	0.489	0.404	0.655	0.362	0.386	0.319	0.286	0.317	0.301	0.292	0.972	0.996	0.989	0.84	1.03	0.446	0.438	0.364	–	0.421
PC-14	0.645	–	0.714	0.559	0.797	0.253	0.319	0.218	0.188	0.111	1.07	0.895	1.03	0.945	0.944	–	0.576	0.551	0.396	0.291
NCI-H2405	0.386	0.435	0.468	0.399	0.357	–	0.775	0.725	0.51	0.644	0.945	1	1.07	1	1.11	0.708	0.697	0.573	0.573	0.627
NCI-H1395	0.485	0.382	0.465	0.441	0.45	–	0.443	0.442	–	0.432	1.2	0.913	1.37	0.97	1.18	0.642	0.755	0.657	0.627	0.688
NCI-H596	0.735	0.784	0.841	0.746	0.638	0.634	0.589	0.679	0.492	0.513	1.15	1.1	1.24	1.16	1.03	0.79	0.871	0.977	0.705	0.915
